According to patent US6710052B2, “Pyrimidine compounds” (AstraZeneca, priority 2000, dated 2004):

Columns and labels:
[1] = molecular target: T1, CDK4/Cyclin D1 (Homo sapiens, UniProt P11802); assay: CDK4 Inhibition Assay (Scintillation Proximity Assay, GST-Retinoblastoma substrate); format: biochemical; conditions: in vitro kinase assay; read-out: CDK4 inhibitory activity IC50
T1 construct: made in house; host or cells: Sf21 insect cells, baculovirus co-infection (pVL1393); the GST-Rb substrate was made in E. coli BL21 (DE3) pLysS
T1 sequence (P11802 whole entry): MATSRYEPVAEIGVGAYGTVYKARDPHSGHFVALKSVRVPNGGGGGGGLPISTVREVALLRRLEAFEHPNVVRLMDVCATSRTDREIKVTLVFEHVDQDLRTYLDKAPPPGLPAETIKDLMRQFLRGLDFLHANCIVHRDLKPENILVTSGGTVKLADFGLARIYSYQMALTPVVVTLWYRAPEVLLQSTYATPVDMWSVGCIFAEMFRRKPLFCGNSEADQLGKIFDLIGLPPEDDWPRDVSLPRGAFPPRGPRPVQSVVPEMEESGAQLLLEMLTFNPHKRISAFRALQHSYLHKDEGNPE
T1 sequence (P24385 whole entry partner): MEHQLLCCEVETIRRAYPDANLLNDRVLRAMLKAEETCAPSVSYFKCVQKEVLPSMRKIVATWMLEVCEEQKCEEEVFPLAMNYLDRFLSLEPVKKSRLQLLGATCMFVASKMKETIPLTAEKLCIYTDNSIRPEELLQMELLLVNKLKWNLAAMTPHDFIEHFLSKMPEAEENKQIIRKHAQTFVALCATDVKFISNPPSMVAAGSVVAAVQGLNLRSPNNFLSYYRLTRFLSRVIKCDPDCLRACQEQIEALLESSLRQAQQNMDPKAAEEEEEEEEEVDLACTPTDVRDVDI
Description: The compounds were tested in an in vitro kinase assay in 96 well format using Scintillation Proximity Assay (SPA—obtained from Amersham) for measuring incorporation of [γ-33-P]-Adenosine Triphosphate into a test substrate (GST-Retinoblastoma). In each well was placed the compound to be tested (diluted in DMSO and water to correct concentrations) and in control wells either p 16 as an inhibitor control or DMSO as a positive control.
Approximately 0.51 μl of CDK4/Cyclin D1 partially-purified enzyme (amount dependent on enzyme activity) diluted in 25 μl incubation buffer was added to each well then 20 μl of GST-Rb/ATP/ATP33 mixture (containing 0.5 μg GST-Rb and 0.2 μM ATP and 0.14 μCi [γ-33-P]-Adenosine Triphosphate), and the resulting mixture shaken gently, then incubated at room temperature for 60 minutes. […]
The plates were sealed with Topseal-S plate sealers, left for two hours then spun at 2500 rpm, 1124× g., for 5 minutes. The plates were read on a Topcount for 30 seconds per well. […]
E. coli paste was resuspended in 10 ml/g of NETN buffer (50 mM Tris pH 7.5, 120 mM NaCl, 1 mM EDTA, 0.5%v/v NP-40, 1 mM PMSF, 1 ug/ml leupeptin, 1 ug/ml aprotinin and 1 ug/ml pepstatin) and sonicated for 2×45 seconds per 100 ml homogenate. […] The final product was analysed by Sodium Dodeca Sulfate (SDS) PAGE (Polyacrylamide gel) using 8-16% Tris-Glycine gels (Novex, San Diego, USA). […]

[2] = molecular target: T2, human Focal Adhesion Kinase (FAK) (Homo sapiens, UniProt Q05397); assay: FAK3 Kinase Inhibition Assay; format: biochemical; conditions: in vitro enzyme assay; read-out: FAK inhibitory activity IC50
T2 construct: FAK (full length human cDNA described by Andre et al); made in house; host or cells: Sf21 insect cells, recombinant baculovirus (pFastbac 1)
T2 sequence (Q05397 whole entry): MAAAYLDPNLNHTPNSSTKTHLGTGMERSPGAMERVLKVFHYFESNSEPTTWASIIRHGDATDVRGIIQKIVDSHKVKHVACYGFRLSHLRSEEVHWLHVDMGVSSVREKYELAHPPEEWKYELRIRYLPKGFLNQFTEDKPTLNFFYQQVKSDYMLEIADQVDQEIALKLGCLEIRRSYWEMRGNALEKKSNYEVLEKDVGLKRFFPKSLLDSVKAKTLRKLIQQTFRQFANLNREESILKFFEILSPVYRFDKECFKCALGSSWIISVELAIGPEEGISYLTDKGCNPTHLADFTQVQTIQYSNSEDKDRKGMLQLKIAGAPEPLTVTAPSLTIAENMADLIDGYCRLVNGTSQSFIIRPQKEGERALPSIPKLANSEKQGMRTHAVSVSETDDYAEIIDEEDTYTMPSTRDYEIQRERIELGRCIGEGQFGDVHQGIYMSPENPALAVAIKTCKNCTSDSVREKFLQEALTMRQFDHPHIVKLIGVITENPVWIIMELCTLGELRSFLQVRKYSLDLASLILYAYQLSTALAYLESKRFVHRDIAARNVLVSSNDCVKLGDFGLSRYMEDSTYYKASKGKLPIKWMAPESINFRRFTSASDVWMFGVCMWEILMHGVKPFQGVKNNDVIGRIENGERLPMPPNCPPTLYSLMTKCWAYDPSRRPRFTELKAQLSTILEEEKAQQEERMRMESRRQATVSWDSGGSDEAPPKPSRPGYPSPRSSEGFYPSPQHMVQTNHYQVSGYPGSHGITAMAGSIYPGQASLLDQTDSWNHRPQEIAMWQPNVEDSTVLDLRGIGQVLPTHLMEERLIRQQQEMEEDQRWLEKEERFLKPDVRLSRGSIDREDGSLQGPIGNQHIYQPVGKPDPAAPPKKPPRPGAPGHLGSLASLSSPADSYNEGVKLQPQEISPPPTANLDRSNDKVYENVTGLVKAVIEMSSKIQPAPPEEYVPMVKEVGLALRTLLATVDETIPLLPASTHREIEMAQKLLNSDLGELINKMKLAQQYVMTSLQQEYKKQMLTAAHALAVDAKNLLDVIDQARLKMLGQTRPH
Description: FAK3 Kinase Inhibition Assay
This assay determines the ability of a test compound to inhibit tyrosine kinase activity of human Focal Adhesion Kinase (FAK).
DNA encoding FAK is obtained by total gene synthesis (Edwards M, International Biotechnology Lab 5(3), 19-25, 1987) or by cloning. These are then expressed in a suitable expression system to obtain polypeptide with tyrosine kinase activity.
Active FAK protein has been previously expressed in a baculovirus system using a similar N-terminal 6-histidine tag (Protein Expression And Purification, 1996, 7: 12-18). The human FAK cDNA was cloned into the baculovirus transplacement vector, pFastbac 1 (Life Technologies), and the recombinant construct was co-transfected into insect cells (for example Spodoptera frugiperda 21(Sf21)) with viral DNA to prepare recombinant baculovirus (details of the methods for the assembly of recombinant DNA molecules and the preparation and use of recombinant baculovirus can be found in standard texts for example Sambrook et al, 1989, Molecular cloning—A Laboratory Manual, 2nd edition, Cold Spring Harbour Laboratory Press and O'Reilly et al, 1992, Baculovirus Expression Vectors—A Laboratory Manual, W. H. Freeman and Co, New York. Details specific to the use of the pFastbac (‘Bac to Bac’) system are provided in Anderson et al., 1995, FOCUS (Life Technologies Bulletin Magazine), 17, p53.) […]

COc1ccc(Oc2nc(Nc3ccc(OCC(O)CNC(C)C)cc3)ncc2F)cc1 (centres unmarked) [Example 13]
IC50 [1]: 0.896 µM

CN(C)CC(O)COc1ccc(Nc2ncc(Br)c(Sc3ccccc3)n2)cc1 (centres unmarked) [Example 14, 5-Bromo-2-{4-[2-hydroxy-3-(N,N-dimethylamino)propoxy]anilino}-4-(phenylthio)pyrimidine]
IC50 [2]: 0.366 µM
